“Also recorded” adds a separate entry of the source.
Experiments:
[1] = tested on: IL-1β production by human PBMCs; assay: IL-1β production by human PBMCs stimulated with PRR ligands with or without caspase-1 inhibitor (ELISA); format: cell-based; conditions: 24 h stimulation, 50 healthy donors
[2] = tested on: IL-1β production of PBMCs from gout patients; conditions: MSU or C16.0 alone; cited from earlier work

Compound	induction of IL-1β production by human PBMCs [1]	release of IL-1β by the single component alone [2]
CC(=O)N[C@H]1C(O)O[C@H](CO)[C@@H](O)[C@@H]1O[C@H](C)C(=O)N[C@@H](C)C(=O)N[C@H](CCC(=O)O)C(N)=O (mixture of isomers) [MDP, Muramyl dipeptide]	strong inducers; also recorded: weak inducer	
CCCCCCCCCCCCCCCC(=O)O [C16.0, Palmitic acid]		neither does
Flagellin	weak inducer	
Pam3cys	strong inducers	
